# Laboratory results taken from patent US20170283440A1, “CARM1 INHIBITORS AND USES THEREOF” (Epizyme, Inc., priority 2014, published 2017).
# Assays:
# Human CARM1 (PRMT4) = biological target: T1, Human CARM1 (PRMT4) (Homo sapiens, UniProt Q86X55); assay: CARM1 enzyme assay on peptide substrate (3H-SAM Flashplate); assay type: biochemical; conditions: CARM1 0.25 nM, 3H-SAM 30 nM, peptide 250 nM; read-out: Biochem IC50
# T1 construct: Flag-CARM1-His was eluted with 200 ug/ml FLAG peptide in buffer A; made in house; host or cells: HEK 293F cells infected with recombinant baculovirus (pFastBacMam)
# Excerpt: S-adenosylmethionine (SAM), S-adenosylhomocysteine (SAH), bicine, Tween20, dimethylsulfoxide (DMSO), bovine skin gelatin (BSG), sodium butyrate and Tris(2-carboxyethyl)phosphine hydrochloride solution (TCEP) were purchased from Sigma-Aldrich at the highest level of purity possible. ^3H-SAM was purchase from American Radiolabeled Chemicals with a specific activity of 80 Ci/mmol. 384-well streptavidin Flashplates were purchased from PerkinElmer.
# Peptide representative of human histone H3 residues 16-30 was synthesized with an N-terminal linker-affinity tag motif and a C-terminal amide cap by 21st Century Biochemicals. The peptide was purified by high-performance liquid chromatography (HPLC) to greater than 95% purity and confirmed by liquid chromatography mass spectrometry (LC-MS). The sequence was Biot-Ahx-[…]-amide and contained a monomethylated arginine at position 26 (SEQ ID NO.:1).
# Human CARM1 (PRMT4) (NM_199141.1) transcript clone was amplified from an HEK 293 cDNA library, incorporating a flanking 5′ sequence encoding a FLAG tag ([…]) (SEQ ID NO.:2) fused directly to Ala 2 of CARM1 and 3′ sequence encoding a hexa His sequence ([…]) (SEQ ID NO.:3) fused directly to Ser 608. The gene sequence encoding isoform1 containing a deletion of amino acids 539-561 was amplified subsequently and subcloned into pFastBacMam (Viva Biotech).
# Recombinant baculovirus were generated according to Bac-to-Bac kit instructions (Life Technologies). Protein over-expression was accomplished by infecting exponentially growing HEK 293F cell culture at 1.3×10^6 cell/ml with virus (MOI=10) in the presence of 8 mM sodium butyrate. Infections were carried out at 37° C. for 48 hours, harvested by centrifugation, and stored at −80° C. for purification.
# Column was washed with 500 mM NaCl in buffer A and Flag-CARM1-His was eluted with 200 ug/ml FLAG peptide in buffer A. Pooled fractions were dialyzed in 20 mM Tris, 150 mM NaCl, 5% glycerol and 1 mM DTT, pH 7.8. The purity of recovered protein was 94.
# The assays were all performed in a buffer consisting of 20 mM Bicine (pH=7.6), 1 mM TCEP, 0.005% BSG, and 0.002% Tween 20, prepared on the day of use. Compounds in 100% DMSO (1 ul) were spotted into a polypropylene 384-well V-bottom plates (Greiner) using a Platemate Plus outfitted with a 384-channel head (Thermo Scientific). DMSO (1 ul) was added to Columns 11, 12, 23, 24, rows A-H for the maximum signal control and 1 ul of SAH, a known product and inhibitor of CARM1, was added to columns 11, 12, 23, 24, rows I—P for the minimum signal control. A cocktail (40 ul) containing the CARM1 enzyme was added by Multidrop Combi (Thermo-Fisher). The compounds were allowed to incubate with CARM1 for 30 min at room temperature, then a cocktail (10 ul) containing ^3H-SAM and peptide was added to initiate the reaction (final volume=51 ul). The final concentrations of the components were as follows: CARM1 was 0.25 nM, ^3H-SAM was 30 nM, peptide was 250 nM, SAH in the minimum signal control wells was 1 mM, and the DMSO concentration was 2%. The assays were stopped by the addition of non-radiolabeled SAM (10 ul) to a final concentration of 300 uM, which dilutes the ^3H-SAM to a level where its incorporation into the peptide substrate is no longer detectable. 50 ul of the reaction in the 384-well polypropylene plate was then transferred to a 384-well Flashplate and the biotinylated peptides were allowed to bind to the streptavidin surface for at least 1 hour before being washed once with 0.1% Tween20 in a Biotek ELx405 plate washer. The plates were then read in a PerkinElmer TopCount plate reader to measure the quantity of ^3H-labeled peptide bound to the Flashplate surface, measured as disintegrations per minute (dpm) or alternatively, referred to as counts per minute (cpm).
# where dpm=disintegrations per minute, cmpd=signal in assay well, and min and max are the respective minimum and maximum signal controls. […]
# [1] = system: asymmetric di-methyl PABP1 in RKO cells; assay: RKO methylation assay (In Cell Western for asymmetric di-methyl PABP1); assay type: cell-based; conditions: Homo sapiens, 48 hours incubation, read-out: Cellular IC50
# Excerpt: RKO adherent cells were purchased from ATCC (American Type Culture Collection), Manassas, Va., USA. DMEM/Glutamax medium, penicillin-streptomycin, heat inactivated fetal bovine serum, 0.05% trypsin and D-PBS were purchased from Life Technologies, Grand Island, N.Y., USA. Odyssey blocking buffer, 800CW goat anti-rabbit IgG (H+L) antibody, and Licor Odyssey infrared scanner were purchased from Licor Biosciences, Lincoln, Nebr., USA. Asymmetric di-methyl PABP1 antibody was purchased from Cell Signaling Technology, Danvers, Mass., USA. Methanol was purchased from VWR, Franklin, Mass., USA. 10% Tween 20 was purchased from KPL, Inc., Gaithersburg, Md., USA. Paraformaldehyde (PFA) was purchased from EM Sciences. DRAQ5 was purchased from Biostatus Limited, Leicestershire, UK.
# RKO adherent cells were maintained in growth medium (DMEM/Glutamax medium supplemented with 10% v/v heat inactivated fetal bovine serum and 100 units/mL penicillin-streptomycin) and cultured at 37° C. under 5% CO2.
# Compound (100 nL) from a 96-well source plate was added directly to 384 well cell plate. Plates were incubated at 37° C., 5% CO2 for 48 hours. After two days of incubation, plates were brought to room temperature outside of the incubator for ten minutes and blotted on paper towels to remove cell media. Cells were fixed for 20 minutes at room temperature by adding 50 ul of 8% PFA followed by aspiration of supernatant with the Biotek EL406 plate washer. Cells were then permeabilized by addition of 50 μL of ice cold 100% methanol directly to each well and incubated for 30 min at room temperature. After 30 min, plates were transferred to a Biotek EL406 plate washer and washed 2 times with 100 μL per well of wash buffer (IX PBS). Next 60 μL per well of Odyssey blocking buffer (Odyssey Buffer with 0.1% Tween 20 (v/v)) were added to each plate and incubated 1 hour at room temperature. Blocking buffer was removed and 20 μL per well of primary antibody was added (asymmetric-methyl PABP1) diluted 1:400 in Odyssey buffer with 0.1% Tween 20 (v/v)) and plates were incubated overnight (16 hours) at 4° C. Plates were washed 5 times with 100 μL per well of wash buffer. Next 20 μL per well of secondary antibody was added (1:800 800CW goat anti-rabbit IgG (H+L) antibody, 1:2000 DRAQ5 in Odyssey buffer with 0.1% Tween 20 (v/v)) and incubated for 1 hour at room temperature. The plates were washed 5 times with 100 μL per well wash buffer then 2 times with 100 μL per well of water. Plates were allowed to dry at room temperature then imaged on the Licor Odyssey machine which measures integrated intensity at 700 nm and 800 nm wavelengths. Both 700 and 800 channels were scanned.
# First, the ratio for each well was determined by:
# Each plate included fourteen control wells of DMSO only treatment (minimum inhibition) as well as fourteen control wells for maximum inhibition treated with 20 μM of a reference compound. The average of the ratio values for each control type was calculated and used to determine the percent […] for each test well in the plate. Reference compound was serially diluted three-fold in DMSO for a total of nine test concentrations, beginning at 20 μM.
# Percent inhibition was determined and IC50 curves were generated using triplicate wells per concentration of compound.
# T1 sequence (Q86X55 other isoform, or with tags, fused parts or gaps): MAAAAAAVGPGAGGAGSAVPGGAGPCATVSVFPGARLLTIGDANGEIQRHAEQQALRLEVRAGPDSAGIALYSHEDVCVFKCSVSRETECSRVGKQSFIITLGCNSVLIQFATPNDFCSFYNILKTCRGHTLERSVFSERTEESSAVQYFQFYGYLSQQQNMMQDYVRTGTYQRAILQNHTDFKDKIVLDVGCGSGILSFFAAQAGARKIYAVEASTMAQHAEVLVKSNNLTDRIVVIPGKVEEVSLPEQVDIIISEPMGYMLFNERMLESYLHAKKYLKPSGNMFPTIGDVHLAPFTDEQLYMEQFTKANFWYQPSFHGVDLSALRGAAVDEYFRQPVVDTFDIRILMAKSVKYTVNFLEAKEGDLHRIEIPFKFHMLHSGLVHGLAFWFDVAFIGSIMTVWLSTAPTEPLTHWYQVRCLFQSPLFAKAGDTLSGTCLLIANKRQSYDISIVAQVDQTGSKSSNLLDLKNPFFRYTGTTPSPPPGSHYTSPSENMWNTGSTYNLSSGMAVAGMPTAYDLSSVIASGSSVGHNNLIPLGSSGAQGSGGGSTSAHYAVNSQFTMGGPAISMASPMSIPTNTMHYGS
SMILES,IC50 (Human CARM1 (PRMT4)),IC50 [1]
Cc1nn(C(C)C)c2nc(-c3cccc(OCC(O)CN)c3)cc(N3CCOCC3)c12 (centres unmarked) [Example 1-2],< 0.1 µM,10 to 20 µM
CNCC(O)COc1cccc(-c2cc(C(=O)NCc3c(C)cc(C)[nH]c3=O)c3cnn(C(C)C)c3n2)c1 (centres unmarked) [Example 1-3],< 0.1 µM,> 20 µM
CCOC(=O)c1c(-c2cccc(OCC(O)CNC)c2)nc2c(cnn2C(C)C)c1N1CCOCC1 (centres unmarked) [Example 1-5],0.1 to 1 µM,> 20 µM
CNCC(O)COc1cc(OC)cc(-c2cc(-c3cnc4[nH]ccc4c3)n3ncc(C(C)C)c3n2)c1 (centres unmarked) [Example 1-6],< 0.1 µM,> 20 µM
CNCC(O)COc1cc(OC)cc(-c2cc(-c3cnc4[nH]ccc4c3)nc3c(C(C)C)cnn23)c1 (centres unmarked) [Example 1-7],< 0.1 µM,> 20 µM
CC(C)n1ncc2c(N3CCOCC3)cc(-c3cccc(OC[C@H](O)CN)c3)nc21 [Example 1-8],< 0.1 µM,10 to 20 µM
CNCC(O)COc1cc(Cl)cc(-c2cc(N(C)C3CCOCC3)n3ncc(C4CC4)c3n2)c1 (centres unmarked) [Example 1-9],< 0.1 µM,> 20 µM
CNCC(O)COc1cccc(-c2cc(NC3CCOCC3)c3c(C4CC4)nn(C(C)C)c3n2)c1 (centres unmarked) [Example 2-2],< 0.1 µM,> 20 µM
CNCC(O)COc1cc(Cl)cc(-c2cc(NC3CCOCC3)c3cnn(C(C)C)c3n2)c1 (centres unmarked) [Example 2-4],< 0.1 µM,> 20 µM
CNCC(O)COc1cc(OC)cc(-c2cc(N(C)C3CCOCC3)n3ncc(C(C)C)c3n2)c1 (centres unmarked) [Example 2-6],< 0.1 µM,5 to 10 µM
CNCC(O)COc1cc(Cl)cc(-c2cc(-c3cc[nH]n3)nc3c(C(C)C)cnn23)c1 (centres unmarked) [Example 2-7],< 0.1 µM,> 20 µM
CNCC(O)COc1cccc(-c2cc(N(C)[C@H]3CCOC3)n3ncc(C(C)C)c3n2)c1 (some centres unmarked) [Example 14-6],< 0.1 µM,–
CNCC(O)COc1cccc(-c2cc(N(C)C3CCOCC3)n3ncc(C(C)(C)C)c3n2)c1 (centres unmarked) [Example 16-8],< 0.1 µM,–
CNCC(O)COc1cccc(-c2cc(N(C)C3CCOCC3)c3cnn(C(C)C)c3n2)c1 (centres unmarked) [Example 40-1],–,5 to 10 µM
CNCC(O)COc1cccc(-c2cc(NCC3CCOCC3)c3cnn(C(C)C)c3n2)c1 (centres unmarked) [Example 41-1],–,> 20 µM
CC(C)n1ncc2c(N(C)CC3CCOCC3)cc(-c3cccc(OCC(O)CN)c3)nc21 (centres unmarked) [Example 42-1],–,> 20 µM
CNCC(O)COc1cccc(-c2cc(NCCCCCCN)c3cnn(C(C)C)c3n2)c1 (centres unmarked) [Example 43-1],–,> 20 µM
CNCC(O)COc1cc(OC)cc(-c2cc(N(C)C3CCOCC3)n3ncc(C4CC4)c3n2)c1 (centres unmarked) [Example 44-6],< 0.1 µM,–

SMILES,IC50 (Human CARM1 (PRMT4)),IC50 [1]
CNCC(O)COc1cccc(-c2cc(NCc3cnn(C)c3C)c3cnn(C(C)C)c3n2)c1 (centres unmarked) [Example 46-1],–,10 to 20 µM
CNCC(O)COc1cccc(-c2cc(N[C@H]3CO[C@@H]4OCC[C@@H]43)c3cnn(C(C)C)c3n2)c1 (some centres unmarked) [Example 47-1],–,> 20 µM
CNCC(O)COc1cccc(-c2cc(N(C)CC3CCOCC3)c3cnn(C(C)C)c3n2)c1 (centres unmarked) [Example 48-1],–,10 to 20 µM
CC(C)n1ncc2c(NC(=O)NC3CCOCC3)cc(-c3cccc(OCC(O)CN)c3)nc21 (centres unmarked) [Example 49-1],–,> 20 µM
CC(C)n1ncc2c(NCc3cnc4ccccn34)cc(-c3cccc(OCC(O)CN)c3)nc21 (centres unmarked) [Example 50-1],–,> 20 µM
CC(C)n1ncc2c(NC(=O)OCc3ccccc3)cc(-c3cccc(OCC(O)CN)c3)nc21 (centres unmarked) [Example 51-1],–,> 20 µM
CNCC(O)COc1cccc(-c2cc(N3CCC(C(=O)OC)CC3)c3cnn(C(C)C)c3n2)c1 (centres unmarked) [Example 52-1],–,> 20 µM
CNCC(O)COc1cccc(-c2cc(NCc3cnc4ccccn34)c3cnn(C(C)C)c3n2)c1 (centres unmarked) [Example 53-1],–,> 20 µM
CNCC(O)COc1cccc(-c2cc(NC(=O)OCc3ccccc3)c3cnn(C(C)C)c3n2)c1 (centres unmarked) [Example 54-1],–,> 20 µM
COc1nc(C)cc(C)c1CNc1cc(-c2cccc(OCC(O)CN)c2)nc2c1cnn2C(C)C (centres unmarked) [Example 55-1],–,> 20 µM
CNCC(O)COc1cccc(-c2cc(NCCNC(=O)c3cccnc3)c3cnn(C(C)C)c3n2)c1 (centres unmarked) [Example 56-1],–,> 20 µM
CNCC(O)COc1cccc(-c2cc(NCCNC(=O)c3ccn(C)n3)c3cnn(C(C)C)c3n2)c1 (centres unmarked) [Example 58-1],–,> 20 µM
CNCC(O)COc1cccc(-c2cc(NCCCNC(=O)c3cccnc3)c3cnn(C(C)C)c3n2)c1 (centres unmarked) [Example 59-1],–,> 20 µM
CNCC(O)COc1cccc(-c2cc(NCCCNC(=O)c3ccn(C)n3)c3cnn(C(C)C)c3n2)c1 (centres unmarked) [Example 60-1],–,> 20 µM
CNCC(O)COc1cccc(-c2cc(NCCCCNC(=O)c3cccnc3)c3cnn(C(C)C)c3n2)c1 (centres unmarked) [Example 61-1],–,> 20 µM
CNCC(O)COc1cccc(-c2cc(NCCCCNC(=O)c3ccn(C)n3)c3cnn(C(C)C)c3n2)c1 (centres unmarked) [Example 62-1],–,> 20 µM
CNCC(O)COc1cccc(-c2cc(NCCCCCNC(=O)c3cccnc3)c3cnn(C(C)C)c3n2)c1 (centres unmarked) [Example 63-1],–,> 20 µM
CNCC(O)COc1cccc(-c2cc(NCCCCCCNC(=O)c3cccnc3)c3cnn(C(C)C)c3n2)c1 (centres unmarked) [Example 65-1],–,10 to 20 µM
